Structures are written as SMILES.

Settings in the first series: not given
With `C[Si](C)(C)Oc1ccccc1`, the boiling point worked out at 119 °C and the melting point is -55 °C. Take `Cc1cc(-c2ccc(N=C=O)c(C)c2)ccc1N=C=O`: the melting point is 71 °C. For `CCCCCCCCCCCl`, the boiling point came out at 223 °C, the log10 vapour pressure (mmHg) was -2.01 and the melting point was -31.3 °C. Compound `O=Cc1ccc(O)c(O)c1O` displayed a melting point of 160 °C. As to `O=C(O)C(F)(F)C(F)(F)F`, the boiling point was 96.5 °C.

`C[C@H]1C[C@H]2[C@@H]3CCC4=CC(=O)C=C[C@]4(C)[C@H]3C(=O)C[C@]2(C)[C@@]1(O)C(=O)CO` gave a melting point of 202 °C. `CCCCCCN` showed a boiling point of 133 °C, a log10 Henry constant (atm·m³/mol) of -4.57, a log10 vapour pressure (mmHg) of 0.954 and a melting point of -22.9 °C. For the same compound, the ready biodegradability result was “readily biodegradable”. `C[C@H]1CC[C@]2(NC1)O[C@H]1C[C@H]3[C@@H]4CC[C@H]5C[C@@H](O)CC[C@]5(C)[C@H]4CC[C@]3(C)[C@H]1[C@@H]2C` came in with a melting point of 210 °C.

In turn, `Cc1c(Cl)cccc1Nc1ncccc1C(=O)O` gave a melting point of 234 °C.

Turning to `CC[Si](OC)(OC)OC`, the boiling point turned out to be 124 °C. For `CCOP(=S)(OCC)Oc1cc(C)nc(N(CC)CC)n1`, the log10 Koc (L/kg) was found to be 2.48, the log10 vapour pressure (mmHg) is -3.54 and the melting point was determined as 15 °C. `CCCCCCCCCCCCCCCl` registered a boiling point of 292 °C, a log10 vapour pressure (mmHg) of -3.14 and a melting point of 4.9 °C. In turn, `Nc1ccn([C@@H]2O[C@H](CO)[C@@H](O)[C@@H]2O)c(=O)n1` registered a melting point of 212 °C.

The compound `Clc1ccc(Cl)s1` returned a boiling point of 162 °C, a log10 vapour pressure (mmHg) of 0.934 and a melting point of -40.5 °C. As to `C=CC=CC=C`, the boiling point was found to be 78 °C, the log10 vapour pressure (mmHg) worked out at 1.95 and the melting point was -12 °C. Take `CCc1cccnc1`: the boiling point turned out to be 165 °C, the log10 Henry constant (atm·m³/mol) is -4.98, the log10 vapour pressure (mmHg) came out at 0.403 and the melting point is -76.9 °C. Compound `FC(F)(F)CBr` showed a boiling point of 26 °C and a melting point of -93.9 °C.

`CCCCCCCCF` yielded a boiling point of 142 °C and a log10 vapour pressure (mmHg) of 0.772. As for `CC(NNC(=O)c1ccccc1)c1ccccc1` (centres undefined), the melting point is 93.5 °C. Take `O=C(Nc1ccc(Cl)cc1)Nc1ccc(Cl)c(Cl)c1`: the melting point was 256 °C and the ready biodegradability result was “not readily biodegradable”. In turn, `Cc1cc(C(C)(C)C)c(O)c(C)c1CC1=NCCN1` had a melting point of 182 °C. As to `Oc1ccc(C(F)(F)F)cc1`, the melting point was 46 °C. `FC(F)(F)C(F)(I)C(F)(F)F`: the boiling point was determined as 40 °C. As to `C=CCNc1ccccc1`, the boiling point is 219 °C. Compound `Cc1ccc(NC(=O)N(C)C)cc1` showed a log10 Koc (L/kg) of 1.51. Compound `CCCCC(=O)CCCC` returned a boiling point of 188 °C, a log10 vapour pressure (mmHg) of -0.258 and a melting point of -3.8 °C. As for `CCOC(=O)C(SP(=S)(OC)OC)c1ccccc1` (centres undefined), the log10 Koc (L/kg) amounted to 3, the log10 vapour pressure (mmHg) is -5.58, the melting point turned out to be 17.5 °C and the ready biodegradability result is reported as “not readily biodegradable”. In the case of `Cc1cc(C)c2ccccc2c1C`, the melting point stood at 55.5 °C. Take `CC(=O)[O-].[K+]`: the melting point turned out to be 292 °C.

Take `COC(OC)OC`: the boiling point stood at 104 °C. In turn, `CCCCCCC(=O)OC(=O)CCCCCC` returned a boiling point of 270 °C and a melting point of -12.4 °C. `Oc1ccc(Br)c2cccnc12`: the melting point stood at 124 °C. `Cc1ccc(S(=O)(=O)C2(C(=O)OC(C)C)CC2)cc1` had a melting point of 65.5 °C.

Regarding `O=C=Nc1ccccc1`, the boiling point was 163 °C and the log10 vapour pressure (mmHg) worked out at 0.41. `Oc1ccc(OCc2ccccc2)cc1`: the melting point was 122 °C. As to `CCC(=O)CC(C)C`, the boiling point worked out at 135 °C. As for `COc1ccc(-c2cc(=O)c3c(O)cc(O)cc3o2)cc1O`, the melting point was found to be 254 °C. The compound `NC(=O)C(=O)O` came in with a log10 vapour pressure (mmHg) of -6.33. Regarding `c1cscn1`, the boiling point stood at 118 °C and the log10 vapour pressure (mmHg) was 1.23.

`CN(C)CCN1C(=O)c2ccccc2Nc2cc(Cl)ccc21` returned a melting point of 166 °C. Still for that read-out and setting: the same measure for `Cc1nc2cc(Cl)ccc2s1`: 69 °C.

Consider `c1ccoc1`, for which the boiling point was 31.5 °C, the log10 vapour pressure (mmHg) is 2.78, the melting point is -85.6 °C and the ready biodegradability entry is reported as “not readily biodegradable”. The compound `O=C(O)CNc1ccccc1` returned a melting point of 128 °C.

The compound `O[C@@H]1CCc2ccccc21` had a boiling point of 220 °C and a melting point of 54.8 °C. On to `CC(C)(C)C(=O)CC(=O)C(F)(F)C(F)(F)C(F)(F)F`, for which the melting point stood at 38 °C. Regarding `Clc1cc(Cl)c2cc(Cl)cc(Cl)c2c1`, the log10 Koa stood at 7.9 and the melting point came to 180 °C. `CCNC(=O)C(=O)NCC` came in with a melting point of 175 °C. In the case of `O=CF`, the boiling point was -26.5 °C, the log10 vapour pressure (mmHg) was determined as 3.46 and the melting point is -142 °C.

Still in this series, the particulars now being: fish.
The compound `Clc1cc2oc3c(Cl)c(Cl)ccc3c2cc1Cl` displayed a log10 BCF of 2.72. The same measure, in the same setting: the value for `S=C(NC1CCCCC1)NC1CCCCC1` was 0.64. On the same count and under the same terms, the same measure for `Cc1cc(O)ccc1[N+](=O)[O-]`: 1.06. With `Clc1cc(Cl)c(Cl)c(-c2cccc(Cl)c2Cl)c1`, the log10 biotransformation half-life (days) is 2.44. On to `CNC(=O)Oc1cc(C)cc(C)c1`, for which the log10 BCF came out at 0.4. In turn, `COc1c(Cl)c(Cl)cc(Cl)c1Cl` returned a log10 BCF of 3.69. The compound `CCOC(=O)C(SP(=S)(OC)OC)c1ccccc1` (centres undefined) displayed a log10 BCF of 1.69 and a log10 biotransformation half-life (days) of -0.75. In the same order, the values of `c1ccoc1` are 0.7 and -0.84.

By boiling point is commonly meant the temperature of boiling at a given pressure. One may read the melting point as the temperature of the solid-liquid transition.

Values taken from the OPERA property sets (Mansouri et al. 2018).
